Test results taken from US7186703B2, “Derivatives of branched-chain lipophilic molecules and uses thereof” (D-Pharm Ltd., priority 2000, dated 2007).

How the values were obtained:
[1] = tested on: DNA fragmentation in Neuro2a neuroblastoma cells; test: DNA fragmentation in Neuro2a cells (Cell Death Detection Elisa); format: cell-based, mouse; details: for DNA fragmentation (OD405 nm): 24 hours, Neuro2a (control 0.030)
Method: (§1) In order to further explore the possible mechanism underlying the cytotoxic effect exerted by the various DP-BFAs, two established markers for apoptosis, caspase-3 activity and DNA fragmentation (Lincz (1998) Immunol. Cell Biol. 76: 1–19), were studied.
(§2) Neuro2a neuroblastoma cells (ATCC, CCL-131) were seeded in MEM containing 2 mM L-glutamine, 100 units/ml penicillin, 100 ug/ml streptomycin and 10% FCS at 37° C. 24 hours later, when cells were in logarithmic growth phase, 3,12-DEG-PC was added to a final concentration of 25 μM, 50 μM or 100 μM. Cells grown in the presence of vehicle only served as control group.
(§3) Assays for caspase-3 activity and DNA-fragmentation were performed on cell lysates obtained following, respectively, 6 and 24 hours incubation with the drug. Caspase-3 activity was assayed using the fluorogenic substrate Ac-DEVD-AMC (Pharmingen, Becton Dickinson, cat. no. 66081U) and following the manufacture's instructions. DNA-fragmentation was quantified by using the Cell Death Detection Elisa plus kit (Roche, cat. no. 1774 425) and following the manufacture's instructions.
(§4) The measured caspase activity is expressed as percentage of the activity in the control plates normalized to protein content. DNA-fragmentation is expressed as OD values at λ=405 nm and is an average of readings from duplicate cell culture lysates.

[2] = tested on: caspase-3 activity in Neuro2a neuroblastoma cells; test: Caspase-3 activity in Neuro2a cell lysates (Ac-DEVD-AMC substrate); format: cell-based, mouse
Method: as §1, §2, §3, §4

Compound: CCCCCCCCCCCCC(CCC)C(=O)OCCOCCOP(=O)([O-])OCC[N+](C)(C)C (stereo not shown) [3,12-DEG-PC, 2-(2′-Propyltetradecanoyloxy)ethoxyethylphosphocholine]
- DNA fragmentation (OD405 nm) ([1]; 25 μM): 0.036 OD405 nm
- DNA fragmentation (OD405 nm) ([1]; 50 μM): 0.153 OD405 nm
- DNA fragmentation (OD405 nm) ([1]; 100 μM): 0.389 OD405 nm
- DNA fragmentation (in words) ([1]; Neuro2a cells): significant increase in DNA fragmentation
- activity at 25 µM ([2]; Mus musculus, N2a, 25 μM, 6 hours, Neuro2a, normalized to protein content, read-out: Caspase activity (% of control)): 210%
- activity at 50 µM ([2]; Mus musculus, N2a, 50 μM, 6 hours, Neuro2a, normalized to protein content, read-out: Caspase activity (% of control)): 540%
- increase in caspase-3 activity ([2]; Neuro2a cells): about 5 fold
